Experimental data: PubChem BioAssay (NCI)
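48-hour exposure; five concentrations; linearly interpolated endpoints. Here, GI50 denotes the concentration required for 50% inhibition of growth. At the TGI there is no net growth.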

Tests used:
Assay in all cases: inhibition of tumour cell growth, NCI panel, 48 h
HS 578T breast = test system: HS 578T breast
SNB-19 CNS = test system: SNB-19 CNS
CAKI-1 renal = test system: CAKI-1 renal
LOX IMVI melanoma = test system: LOX IMVI melanoma
SF-295 CNS = test system: SF-295 CNS
SN12C renal = test system: SN12C renal
NCI-H23 lung = test system: NCI-H23 lung
OVCAR-8 ovarian = test system: OVCAR-8 ovarian
K-562 leukemia = test system: K-562 leukemia
UO-31 renal = test system: UO-31 renal
NCI-H522 lung = test system: NCI-H522 lung
A549 NSCLC = test system: A549 NSCLC
SK-MEL-28 melanoma = test system: SK-MEL-28 melanoma
DU-145 prostate = test system: DU-145 prostate
IGROV1 ovarian = test system: IGROV1 ovarian
HCT-116 colon = test system: HCT-116 colon
HOP-62 NSCLC = test system: HOP-62 NSCLC
OVCAR-3 ovarian = test system: OVCAR-3 ovarian
HT29 colon = test system: HT29 colon
T-47D breast = test system: T-47D breast
SF-539 CNS = test system: SF-539 CNS
KM12 colon = test system: KM12 colon
SNB-75 CNS = test system: SNB-75 CNS
U251 CNS = test system: U251 CNS
TK-10 renal = test system: TK-10 renal
UACC-62 melanoma = test system: UACC-62 melanoma
OVCAR-5 ovarian = test system: OVCAR-5 ovarian
HCC-2998 colon = test system: HCC-2998 colon
BT-549 breast = test system: BT-549 breast
ACHN renal = test system: ACHN renal
HCT-15 colon = test system: HCT-15 colon
UACC-257 melanoma = test system: UACC-257 melanoma
PC-3 prostate = test system: PC-3 prostate
SK-MEL-5 melanoma = test system: SK-MEL-5 melanoma
M14 melanoma = test system: M14 melanoma
SK-OV-3 ovarian = test system: SK-OV-3 ovarian
NCI/ADR-RES ovarian = test system: NCI/ADR-RES ovarian
HOP-92 NSCLC = test system: HOP-92 NSCLC
SW-620 colon = test system: SW-620 colon
786-0 renal = test system: 786-0 renal
OVCAR-4 ovarian = test system: OVCAR-4 ovarian
MCF7 breast = test system: MCF7 breast
HL-60(TB) leukemia = test system: HL-60(TB) leukemia
SK-MEL-2 melanoma = test system: SK-MEL-2 melanoma
SR leukemia = test system: SR leukemia
CCRF-CEM leukemia = test system: CCRF-CEM leukemia
RPMI-8226 leukemia = test system: RPMI-8226 leukemia
RXF 393 renal = test system: RXF 393 renal
MDA-MB-435 = test system: MDA-MB-435
MOLT-4 leukemia = test system: MOLT-4 leukemia
MDA-MB-231 breast = test system: MDA-MB-231 breast
NCI-H226 lung = test system: NCI-H226 lung
EKVX NSCLC = test system: EKVX NSCLC
MALME-3M melanoma = test system: MALME-3M melanoma
COLO 205 colon = test system: COLO 205 colon
NCI-H460 lung = test system: NCI-H460 lung
SF-268 CNS = test system: SF-268 CNS
A498 renal = test system: A498 renal

CNC(=O)c1cc(Oc2ccc3nc(N[C@@H]4CCCC[C@H]4O)sc3c2)ccn1
GI50 (HS 578T breast): > 69.9 µM | TGI (HS 578T breast): > 100 µM | GI50 (SNB-19 CNS): > 100 µM | TGI (SNB-19 CNS): > 100 µM | GI50 (CAKI-1 renal): 44.9 µM | TGI (CAKI-1 renal): > 100 µM | GI50 (LOX IMVI melanoma): 58.4 µM | TGI (LOX IMVI melanoma): > 100 µM | GI50 (SF-295 CNS): 31.6 µM | TGI (SF-295 CNS): > 100 µM | GI50 (SN12C renal): > 100 µM | TGI (SN12C renal): > 100 µM | GI50 (NCI-H23 lung): 59.3 µM | TGI (NCI-H23 lung): > 100 µM | GI50 (OVCAR-8 ovarian): 69.4 µM | TGI (OVCAR-8 ovarian): > 100 µM | GI50 (K-562 leukemia): 43.7 µM | TGI (K-562 leukemia): > 100 µM | GI50 (UO-31 renal): 33.5 µM | TGI (UO-31 renal): > 100 µM | GI50 (NCI-H522 lung): > 76.7 µM | TGI (NCI-H522 lung): > 100 µM | GI50 (A549 NSCLC): 62.5 µM | TGI (A549 NSCLC): > 100 µM | GI50 (SK-MEL-28 melanoma): 63.3 µM | TGI (SK-MEL-28 melanoma): > 100 µM | GI50 (DU-145 prostate): 71.8 µM | TGI (DU-145 prostate): > 100 µM | GI50 (IGROV1 ovarian): > 77.2 µM | TGI (IGROV1 ovarian): > 100 µM | GI50 (HCT-116 colon): 49.1 µM | TGI (HCT-116 colon): > 100 µM | GI50 (HOP-62 NSCLC): > 67.3 µM | TGI (HOP-62 NSCLC): > 100 µM | GI50 (OVCAR-3 ovarian): 45.2 µM | TGI (OVCAR-3 ovarian): > 100 µM | GI50 (HT29 colon): 97.8 µM | TGI (HT29 colon): > 100 µM | GI50 (T-47D breast): 21.1 µM | TGI (T-47D breast): > 100 µM | GI50 (SF-539 CNS): 36.3 µM | TGI (SF-539 CNS): > 100 µM | GI50 (KM12 colon): 66.3 µM | TGI (KM12 colon): > 100 µM | GI50 (SNB-75 CNS): 31.3 µM | TGI (SNB-75 CNS): > 100 µM | GI50 (U251 CNS): 50.1 µM | TGI (U251 CNS): > 100 µM | GI50 (TK-10 renal): > 100 µM | TGI (TK-10 renal): > 100 µM | GI50 (UACC-62 melanoma): 49.9 µM | TGI (UACC-62 melanoma): > 100 µM | GI50 (OVCAR-5 ovarian): > 100 µM | TGI (OVCAR-5 ovarian): > 100 µM | GI50 (HCC-2998 colon): > 100 µM | TGI (HCC-2998 colon): > 100 µM | GI50 (BT-549 breast): 31.8 µM | TGI (BT-549 breast): > 100 µM | GI50 (ACHN renal): 55.8 µM | TGI (ACHN renal): > 100 µM | GI50 (HCT-15 colon): 38.1 µM | TGI (HCT-15 colon): > 100 µM | GI50 (UACC-257 melanoma): 37.2 µM | TGI (UACC-257 melanoma): > 100 µM | GI50 (PC-3 prostate): 33.7 µM | TGI (PC-3 prostate): > 100 µM | GI50 (SK-MEL-5 melanoma): 18.1 µM | TGI (SK-MEL-5 melanoma): 38.1 µM | GI50 (M14 melanoma): 36.7 µM | TGI (M14 melanoma): > 100 µM | GI50 (SK-OV-3 ovarian): > 100 µM | TGI (SK-OV-3 ovarian): > 100 µM | GI50 (NCI/ADR-RES ovarian): 49.2 µM | TGI (NCI/ADR-RES ovarian): > 100 µM | GI50 (HOP-92 NSCLC): 31.9 µM | TGI (HOP-92 NSCLC): > 100 µM | GI50 (SW-620 colon): > 100 µM | TGI (SW-620 colon): > 100 µM | GI50 (786-0 renal): > 90.9 µM | TGI (786-0 renal): > 100 µM | GI50 (OVCAR-4 ovarian): 31.2 µM | TGI (OVCAR-4 ovarian): > 100 µM | GI50 (MCF7 breast): 36.6 µM | TGI (MCF7 breast): > 100 µM | GI50 (HL-60(TB) leukemia): 62.5 µM | TGI (HL-60(TB) leukemia): > 100 µM | GI50 (SK-MEL-2 melanoma): > 87.8 µM | TGI (SK-MEL-2 melanoma): > 100 µM | GI50 (SR leukemia): 40 µM | TGI (SR leukemia): > 100 µM | GI50 (CCRF-CEM leukemia): 43.1 µM | TGI (CCRF-CEM leukemia): > 100 µM | GI50 (RPMI-8226 leukemia): > 54.1 µM | TGI (RPMI-8226 leukemia): > 100 µM | GI50 (RXF 393 renal): > 100 µM | TGI (RXF 393 renal): > 100 µM | GI50 (MDA-MB-435): 32.6 µM | TGI (MDA-MB-435): > 100 µM | GI50 (MOLT-4 leukemia): 32.8 µM | TGI (MOLT-4 leukemia): > 100 µM | GI50 (MDA-MB-231 breast): 82.2 µM | TGI (MDA-MB-231 breast): > 100 µM | GI50 (NCI-H226 lung): 61.9 µM | TGI (NCI-H226 lung): > 100 µM | GI50 (EKVX NSCLC): 38.2 µM | TGI (EKVX NSCLC): > 100 µM | GI50 (MALME-3M melanoma): 28.6 µM | TGI (MALME-3M melanoma): 99.2 µM | GI50 (COLO 205 colon): 59.8 µM | TGI (COLO 205 colon): > 100 µM | GI50 (NCI-H460 lung): 53.4 µM | TGI (NCI-H460 lung): > 100 µM | GI50 (SF-268 CNS): 68 µM | TGI (SF-268 CNS): > 100 µM | GI50 (A498 renal): > 40.5 µM | TGI (A498 renal): > 100 µM
